Drawing on ChEMBL document CHEMBL1250486, “Synthesis and evaluation of fatty acyl ester derivatives of cytarabine as anti-leukemia agents” (2010), this text covers Activity for five compounds.

Activity calls are given as the source filed them. The calls are words filed in the database; no cut-off is given here.

Assay [1] deals with CCRF-CEM. Briefly: Antiproliferative activity against human CCRF-CEM cells at 1 uM after 24 hrs. It counts as functional, cell-based.
For assay [2], the system named is CCRF-CEM. Put plainly: Antiproliferative activity against human CCRF-CEM cells at 1 uM after 96 hrs. It counts as functional.

For the compound `CCCCCCCCCCCCCC(=O)OC[C@H]1O[C@@H](n2ccc(N)nc2=O)[C@@H](OC(=O)CCCCCCCCCCCCC)[C@@H]1O`, the outcome in the assay on CCRF-CEM [1] was Active. The same compound yielded an Activity in the assay on CCRF-CEM [2] of 76%.
As to `CCSCCCCCCCCCCCC(=O)O[C@H]1[C@H](O)[C@@H](CO)O[C@H]1n1ccc(N)nc1=O`, in the assay with CCRF-CEM [1], the outcome was Active. The Activity with CCRF-CEM [2] worked out at 36%.
Turning to `CCSCCCCCCCCCCCC(=O)OC[C@H]1O[C@@H](n2ccc(N)nc2=O)[C@@H](O)[C@@H]1O`, the outcome with CCRF-CEM [2] was inactive.
Consider `CCCCCCCCCCCCCC(=O)OC[C@H]1O[C@@H](n2ccc(N)nc2=O)[C@@H](O)[C@@H]1O`, for which the result in the assay with CCRF-CEM [2] was inactive.
For `CCCCCCCCCCCCCC(=O)O[C@H]1[C@H](O)[C@@H](CO)O[C@H]1n1ccc(N)nc1=O`, the result with CCRF-CEM [1] was Active. Besides, the Activity in the assay on CCRF-CEM [2] stood at 36%.
